Data published in patent US10889584B2, “Bicyclic bis-heteroaryl derivatives as modulators of protein aggregation” (UCB Biopharma SRL, priority 2017, dated 2021).

Target: T1, α-synuclein peptide fragments (Peptide 4F, CTGFVKKDQLGK) (Homo sapiens, UniProt P37840)
T1 construct: purchased American Peptide
Experiment: In-vitro fluorescence polarization assay with alpha-synuclein peptide fragment (4F)
Assay type: biochemical
Settings: peptide 4F 100 nM, 120 min at room temperature, compound 33.3 to 0.015 microM, 50 mM HEPES pH 7.4, 50 mM NaCl, read-out: IC50 (inhibition of self-aggregation of α-synuclein peptide fragment 4F)
Method: Biological Example 1: In-Vitro Fluorescence Polarization Assay with Alpha-Synuclein Peptide Fragment (4F)
The fluorescence polarization assay tests the ability of compounds to inhibit the self-aggregation of α-synuclein peptide fragments. Peptides were incubated for 120 min at room temperature in the presence or absence of test compounds (compound concentrations were 33.3 to 0.015 microM). Samples were read on a Beckman Coulter DTX 880 plate reader in fluorescence polarization mode using excitation at 485 nm and emission at 520 nm. Data was analyzed using a four-parameter logistic fit (XLFit, IDBS Software). Peptide 4F (CTGFVKKDQLGK (SEQ ID NO: 1)) was prepared by American Peptide. Fresh peptide samples were reconstituted in purified water at 5 mM and diluted into 50 mM HEPES pH 7.4 with 50 mM NaCl to 100 nM final concentration. Solid compounds were dissolved in DMSO (10 mM), and then diluted serially in DMSO (300×) followed by dilution in buffer (1×) to provide solutions with a consistent final DMSO concentration of 0.33%.

Compound | IC50
CCCCC(Cc1c[nH]c2ccccc12)NC(=O)c1cnc(N2Cc3cn[nH]c3C2)s1 (centres unmarked) [Example 1, 2-(4,6-dihydro-1H-pyrrolo[3,4-c]pyrazol-5-yl)-N-[1-(1H-indol-3-ylmethyl)pentyl]thiazole-5-carboxamide] | 2.4 µM
CCCCC(Cc1c[nH]c2ccccc12)NC(=O)c1cnc(N2CCn3cnnc3C2)s1 (centres unmarked) [Example 2, 2-(6,8-dihydro-5H-[1,2,4]triazolo[4,3-a]pyrazin-7-yl)-N-[1-(1H-indol-3-ylmethyl)pentyl]thiazole-5-carboxamide] | 2.3 µM
CCCCC(Cc1c[nH]c2ccccc12)NC(=O)c1cnc(N2CCc3[nH]ncc3C2)s1 (centres unmarked) [Example 3, N-[1-(1H-indol-3-ylmethyl)pentyl]-2-(1,4,6,7-tetrahydropyrazolo[4,3-c]pyridin-5-yl)thiazole-5-carboxamide] | 2.2 µM
CCCCC(Cc1c[nH]c2ccccc12)NC(=O)c1cnc(N2CCn3nc(C)cc3C2)s1 (centres unmarked) [Example 4, N-[1-(1H-indol-3-ylmethyl)pentyl]-2-(2-methyl-6,7-dihydro-4H-pyrazolo[1,5-a]pyrazin-5-yl)thiazole-5-carboxamide] | 1.4 µM
CCCCC(Cc1c[nH]c2ccccc12)NC(=O)c1cnc(N2Cc3cnn(C)c3C2)s1 (centres unmarked) [Example 5, N-[1-(1H-indol-3-ylmethyl)pentyl]-2-(1-methyl-4,6-dihydropyrrolo[3,4-c]pyrazol-5-yl)thiazole-5-carboxamide] | 2.1 µM
CCCCC(Cc1c[nH]c2ccccc12)NC(=O)c1cnc(N2CCn3nncc3C2)s1 (centres unmarked) [Example 6, 2-(6,7-dihydro-4H-triazolo[1,5-a]pyrazin-5-yl)-N-[1-(1H-indol-3-ylmethyl)pentyl]thiazole-5-carboxamide] | 2.6 µM
CCCCC(Cc1c[nH]c2ccccc12)NC(=O)c1cnc(N2CCn3ncnc3C2)s1 (centres unmarked) [Example 7, 2-(6,8-dihydro-5H-[1,2,4]triazolo[1,5-a]pyrazin-7-yl)-N-[1-(1H-indol-3-ylmethyl)pentyl]thiazole-5-carboxamide] | 2.2 µM
CCCCC(Cc1c[nH]c2ccccc12)NC(=O)c1cnc(N2CCn3nc(C)nc3C2)s1 (centres unmarked) [Example 8, N-[1-(1H-indol-3-ylmethyl)pentyl]-2-(2-methyl-6,8-dihydro-5H-[1,2,4]triazolo[1,5-a]pyrazin-7-yl)thiazole-5-carboxamide] | 1.6 µM
CCCCC(Cc1c[nH]c2ccccc12)NC(=O)c1cnc(N2CCn3cncc3C2)s1 (centres unmarked) [Example 9, 2-(6,8-dihydro-5H-imidazo[1,5-a]pyrazin-7-yl)-N-[1-(1H-indol-3-ylmethyl)pentyl]thiazole-5-carboxamide] | 1.5 µM
CCCCC(Cc1c[nH]c2ccccc12)NC(=O)c1cnc(N2CCc3onc(C)c3C2)s1 (centres unmarked) [Example 10, N-[1-(1H-indol-3-ylmethyl)pentyl]-2-(3-methyl-6,7-dihydro-4H-isoxazolo[4,5-c]pyridin-5-yl)thiazole-5-carboxamide] | 0.84 µM

Second part, the compound after the results:

IC50 | Compound
0.8 µM | CCCCC(Cc1c[nH]c2ccccc12)NC(=O)c1cnc(N2CCc3onc(C(F)(F)F)c3C2)s1 (centres unmarked) [Example 11, N-[1-(1H-indol-3-ylmethyl)pentyl]-2-[3-(trifluoromethyl)-6,7-dihydro-4H-isoxazolo[4,5-c]pyridin-5-yl]thiazole-5-carboxamide]
0.9 µM | CCCCC(Cc1c[nH]c2ccccc12)NC(=O)c1cnc(N2CCc3noc(C(F)(F)F)c3C2)s1 (centres unmarked) [Example 12, N-[1-(1H-indol-3-ylmethyl)pentyl]-2-[3-(trifluoromethyl)-6,7-dihydro-4H-isoxazolo[4,3-c]pyridin-5-yl]thiazole-5-carboxamide]
1.4 µM | CCCCC(Cc1c[nH]c2ccccc12)NC(=O)c1cnc(N2CCn3c(cc(C(F)(F)F)cc3=O)C2)s1 (centres unmarked) [Example 13, N-[1-(1H-indol-3-ylmethyl)pentyl]-2-[6-oxo-8-(trifluoromethyl)-3,4-dihydro-1H-pyrido[1,2-a]pyrazin-2-yl]thiazole-5-carboxamide]
1.7 µM | CCCCC(Cc1c[nH]c2ccccc12)NC(=O)c1cnc(N2CCn3c(C)nnc3C2)s1 (centres unmarked) [Example 14, N-[1-(1H-indol-3-ylmethyl)pentyl]-2-(3-methyl-6,8-dihydro-5H-[1,2,4]triazolo[4,3-a]pyrazin-7-yl)thiazole-5-carboxamide]
1.3 µM | CCCCC(Cc1c[nH]c2ccccc12)NC(=O)c1cnc(N2CCc3oncc3C2)s1 (centres unmarked) [Example 15, 2-(6,7-dihydro-4H-isoxazolo[4,5-c]pyridin-5-yl)-N-[1-(1H-indol-3-ylmethyl)pentyl]thiazole-5-carboxamide]
1 µM | CCCCC(Cc1c[nH]c2ccccc12)NC(=O)c1cnc(N2CCc3c(cnn3C)C2)s1 (centres unmarked) [Example 16, N-[1-(1H-indol-3-ylmethyl)pentyl]-2-(1-methyl-6,7-dihydro-4H-pyrazolo[4,3-c]pyridin-5-yl)thiazole-5-carboxamide]
1.6 µM | CCCCC(Cc1c[nH]c2ccccc12)NC(=O)c1cnc(N2CCn3ccnc3C2)s1 (centres unmarked) [Example 17, 2-(6,8-dihydro-5H-imidazo[1,2-a]pyrazin-7-yl)-N-[1-(1H-indol-3-ylmethyl)pentyl]thiazole-5-carboxamide]
1.2 µM | CCCCC(Cc1c[nH]c2ccccc12)NC(=O)c1cnc(N2CCn3c(nnc3C(F)(F)F)C2)s1 (centres unmarked) [Example 18, N-[1-(1H-indol-3-ylmethyl)pentyl]-2-[3-(trifluoromethyl)-6,8-dihydro-5H-[1,2,4]triazolo[4,3-a]pyrazin-7-yl]thiazole-5-carboxamide]
1.3 µM | CCCCC(Cc1c[nH]c2ccccc12)NC(=O)c1cnc(N2CCn3nccc3C2)s1 (centres unmarked) [Example 19, 2-(6,7-dihydro-4H-pyrazolo[1,5-a]pyrazin-5-yl)-N-[1-(1H-indol-3-ylmethyl)pentyl]thiazole-5-carboxamide]
1.2 µM | CCCCC(Cc1c[nH]c2ccccc12)NC(=O)c1cnc(N2CCc3nn(C)cc3C2)s1 (centres unmarked) [Example 20, N-[1-(1H-indol-3-ylmethyl)pentyl]-2-(2-methyl-6,7-dihydro-4H-pyrazolo[4,3-c]pyridin-5-yl)thiazole-5-carboxamide]
